Data: patent US9630935B2, “Compositions for the treatment of hypertension and/or fibrosis” (Vectus Biosystems Limited, priority 2013, dated 2017)

What was measured:
[1] = system: spontaneous hypertensive rats (SHR); assay: Oral study in SHR on 2.2% salt diet: kidney interstitial fibrosis, histomorphometry on Masson's trichrome stained sections; format: in vivo, rat; conditions: for Fibrosis in the kidney: 18 week old SHR on 2.2% salt diet, 4 weeks treatment, 500 pmol/kg/min orally, compared to controls (FIG. 17); for Histological sections from the kidneys (micrographs): rats on 2.2% salt diet treated four weeks with 500 pmol/kg/min, control has extensive fibrosis (FIG. 21)
Excerpt: (§1) Fourteen week old SHR (on a 2.2% salt diet; Glen Forrest Stockfeeders) were randomly assigned to zero time control, test compound treatment (100 or 500 pmol/kg/min) in the drinking solution or control drinking solution (5% ethanol in deionised distilled water (n=5 each group). The rats assigned to zero time control group were anaesthetised and had their heart and kidneys harvested while rats assigned to control and test compound treatment were weighed twice weekly and had their drinking solution intake monitored to allow adjustment of the test compound concentration in the drinking solution to maintain a constant dose over the 4-week study period. Blood pressure was measured twice weekly by tail cuff plethysmography (PowerLab, ADInstruments, Castle Hill, NSW, Australia).
(§2) After 4 weeks rats were anaesthetised, and their hearts and kidneys harvested for quantitation of fibrosis.
(§3) To quantitate tissue fibrosis tissue slices ≦3 mm thick were fixed in 10% buffered formalin for 24 hours, processed and embedded in paraffin. Three micron transverse sections were stained using Masson's trichrome stain. A minimum of […] random fields at magnification ×20 from transverse sections (5 at each of 2 levels) were digitized and the degree of fibrosis determined as a percent of field area of each digitized image using Image-Pro Plus V.7 (Media Cybernetics, Bethesda, Md., USA) then averaged to determine the level of fibrosis for tissue for each rat.

[2] = system: spontaneous hypertensive rats (SHR); assay: Oral study in SHR on 2.2% salt diet: myocardial fibrosis, histomorphometry on Masson's trichrome stained sections; format: in vivo, rat; conditions: for Fibrosis in the heart: 18 week old SHR on 2.2% salt diet, 4 weeks treatment, 500 pmol/kg/min orally, compared to controls (FIG. 16); for Histological sections from the hearts (micrographs): rats on 2.2% salt diet treated four weeks with 500 pmol/kg/min, control has extensive fibrosis (FIG. 20)
Excerpt: as §1, §2, §3

[3] = system: spontaneous hypertensive rats (SHR); assay: Oral study in SHR on 2.2% salt diet: blood pressure by tail cuff plethysmography; format: in vivo, rat; conditions: 4 weeks treatment, 100 or 500 pmol/kg/min orally in drinking solution, compared to controls (FIG. 13)
Excerpt: as §1

SMILES	Fibrosis in the kidney [1]	Histological sections from the kidneys (micrographs) [1]	Fibrosis in the heart [2]	Histological sections from the hearts (micrographs) [2]	Mean diastolic blood pressure [3]	Mean systolic blood pressure [3]	melting point [°C]
CS(=O)(=O)Nc1cccc(-c2ccc(-c3ccccc3)cc2CCC(N)=O)c1 [T1, 3-(3-(Methylsulfonamido)-[1,1′:4′,1″-terphenyl]-2′-yl)propanamide]	decreased compared to controls	fibrosis has been reduced to thin bands incompletely surrounding some but not all tubules	decreased compared to controls	no discrete areas of fibrosis are present	decreased compared to controls	decreased blood pressure compared to controls	–
NC(=O)CCc1cc(-c2ccccc2)ccc1-c1cccc(NC=O)c1 [T2, 3-(3-Formamido-[1,1′:4′,1″-terphenyl]-2′-yl)propanamide]	decreased compared to controls	fibrosis has been reduced to thin bands incompletely surrounding some but not all tubules	decreased compared to controls	no discrete areas of fibrosis are present	decreased compared to controls	decreased blood pressure compared to controls	–
NC(=O)CCc1cc(-c2ccccc2)ccc1-c1cc(O)cc(O)c1 [T20, 3-(3,5-Dihydroxy-[1,1′:4′,1″-terphenyl]-2′-yl)propanamide]	decreased compared to controls	fibrosis has been reduced to thin bands incompletely surrounding some but not all tubules	decreased compared to controls	no discrete areas of fibrosis are present	–	decreased blood pressure compared to controls	232 to 233
NC(=O)CCc1cc(-c2ccccc2)ccc1-c1ccc2c(c1)NC(=O)C2 [T25, 3-(4-(2-Oxoindolin-6-yl)-[1,1′-biphenyl]-3-yl)propanamide]	–	–	–	–	–	–	219 to 222
NC(=O)CCc1cc(-c2ccccc2)ccc1-c1ccc2[nH]c(=O)[nH]c2c1 [T31, 3-(4-(2-Oxo-2,3-dihydro-1H-benzo[d]imidazol-5-yl)-[1,1′-biphenyl]-3-yl)propanamide]	decreased compared to controls	fibrosis has been reduced to thin bands incompletely surrounding some but not all tubules	decreased compared to controls	no discrete areas of fibrosis are present	decreased compared to controls	decreased blood pressure compared to controls	250 to 251
NC(=O)CCc1cc(-c2ccccc2)ccc1-c1ccnc(N)c1 [T48, 3-(4-(2-Aminopyridin-4-yl)-[1, 1′-biphenyl]-3-yl)propanamide]	decreased compared to controls	–	decreased compared to controls	–	–	decreased blood pressure compared to controls	248 to 249
CS(=O)(=O)Nc1cc(NS(C)(=O)=O)cc(-c2ccc(-c3ccccc3)cc2CCC(N)=O)c1 [T70, 3-(3,5-Di(methylsulfonamido)-[1,1′:4′,1″-terphenyl]-2′-yl)propanamide]	decreased compared to controls	–	decreased compared to controls	–	decreased compared to controls	decreased blood pressure compared to controls	–
